The source of these data is ChEMBL document CHEMBL1938312, “Design and combinatorial synthesis of a novel kinase-focused library using click chemistry-based fragment assembly” (Bioorg Med Chem Lett, 2012).

Assay [1] concerns the target T1, Receptor-type tyrosine-protein kinase FLT3 (Homo sapiens, UniProt P36888).
T1 sequence (P36888 whole entry): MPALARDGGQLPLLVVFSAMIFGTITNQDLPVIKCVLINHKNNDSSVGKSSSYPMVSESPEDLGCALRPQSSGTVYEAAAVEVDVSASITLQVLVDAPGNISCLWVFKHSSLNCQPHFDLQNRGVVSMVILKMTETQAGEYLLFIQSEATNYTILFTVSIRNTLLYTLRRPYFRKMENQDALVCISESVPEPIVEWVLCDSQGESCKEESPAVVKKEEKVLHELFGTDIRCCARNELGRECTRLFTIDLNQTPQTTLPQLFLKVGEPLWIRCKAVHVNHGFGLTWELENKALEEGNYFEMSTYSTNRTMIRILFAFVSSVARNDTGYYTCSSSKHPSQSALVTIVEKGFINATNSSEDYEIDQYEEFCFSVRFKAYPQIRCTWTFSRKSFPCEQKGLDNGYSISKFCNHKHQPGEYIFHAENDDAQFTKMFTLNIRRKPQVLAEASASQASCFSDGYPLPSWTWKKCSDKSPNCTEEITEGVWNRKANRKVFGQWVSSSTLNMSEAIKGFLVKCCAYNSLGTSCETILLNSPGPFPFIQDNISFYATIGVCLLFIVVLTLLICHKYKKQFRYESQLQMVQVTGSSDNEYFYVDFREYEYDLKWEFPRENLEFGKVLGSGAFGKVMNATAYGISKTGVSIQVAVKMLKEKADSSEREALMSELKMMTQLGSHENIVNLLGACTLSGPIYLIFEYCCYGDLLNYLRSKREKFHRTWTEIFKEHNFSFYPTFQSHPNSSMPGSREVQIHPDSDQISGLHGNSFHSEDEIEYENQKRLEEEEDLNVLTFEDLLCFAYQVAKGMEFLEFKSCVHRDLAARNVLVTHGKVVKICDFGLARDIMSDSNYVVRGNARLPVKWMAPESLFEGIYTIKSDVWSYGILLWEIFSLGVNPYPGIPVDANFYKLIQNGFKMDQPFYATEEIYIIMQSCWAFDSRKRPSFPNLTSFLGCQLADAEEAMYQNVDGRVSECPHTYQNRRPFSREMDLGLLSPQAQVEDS
Description: Inhibition of FLT3 by colorimetric analysis.

The target in assay [2] is Glycogen synthase kinase-3 beta (Homo sapiens, UniProt P49841). Description: Inhibition of GSK3-beta by colorimetric analysis.
Sequence of Glycogen synthase kinase-3 beta (P49841 whole entry): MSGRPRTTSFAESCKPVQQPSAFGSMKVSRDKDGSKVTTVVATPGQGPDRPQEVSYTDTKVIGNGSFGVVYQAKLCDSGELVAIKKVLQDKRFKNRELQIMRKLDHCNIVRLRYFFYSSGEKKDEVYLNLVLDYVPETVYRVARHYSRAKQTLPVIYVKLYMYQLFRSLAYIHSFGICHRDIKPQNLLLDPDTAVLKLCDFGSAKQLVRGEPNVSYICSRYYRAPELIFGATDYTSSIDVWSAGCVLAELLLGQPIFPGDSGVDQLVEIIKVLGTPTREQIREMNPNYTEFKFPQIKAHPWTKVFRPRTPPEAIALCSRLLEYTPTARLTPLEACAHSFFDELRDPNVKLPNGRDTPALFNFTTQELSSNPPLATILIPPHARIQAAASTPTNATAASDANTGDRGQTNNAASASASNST

For orientation: IC50 means the concentration at which inhibition is half-maximal. Low values mean higher potency, high ones lower potency. On to `c1cnc2cc(-c3cn(CCN4CCOCC4)nn3)ccc2n1`, for which the 50% inhibitory concentration (IC50) in assay [1] worked out at 10.9 µM.
The same measure, in the same setting: under `Fc1ccc(-n2cc(-c3ccccn3)nn2)cc1` stands 6.7 µM; under `Fc1ccc(-n2nncc2-c2ccncc2)cc1`, 1.4 µM; under `Cc1ccc(-n2nncc2-c2ccncc2)cc1`, 2.3 µM.
Same read-out and setting: under `c1cnc2cc(-c3cn(C4C5CC6CC(C5)CC4C6)nn3)ccc2n1` (stereo unspecified) stands 9.7 µM; under `Fc1ccc(-n2cc(-c3ccc4nccnc4c3)nn2)cc1`, 12.4 µM.
As to `c1ccc(Cn2cc(-c3ccc4nccnc4c3)nn2)cc1`, the results for the IC50 in assay [1] and in assay [2] were 6.3 µM and 9.5 µM, respectively.
Consider `c1cnc2cc(-c3cnnn3C3C4CC5CC(C4)CC3C5)ccc2n1` (stereo unspecified), for which the IC50 stood at 3.1 µM in assay [1] and 2.8 µM in assay [2].
In the same order, the values of `Cc1ccccc1-n1nncc1-c1ccncc1` are 6.2 µM and 6.3 µM.
The molecule `Cc1ccc(-n2cc(-c3ccncc3)nn2)cc1` displayed an IC50 in assay [1] of 6.6 µM.
On the same count and under the same terms, under `Clc1ccc(-n2cc(-c3ccccn3)nn2)cc1` stands 6.3 µM.
For `c1cc(-c2cnnn2C2C3CC4CC(C3)CC2C4)ccn1` (stereo unspecified), the results for the IC50 in assay [1] and in assay [2] were 4.8 µM and 2.6 µM, respectively.
In the same order, the values of `Cc1ccc(-n2cc(-c3ccccn3)nn2)cc1` are 1.1 µM and over 30 µM.
Molecule `c1ccc(-c2cnnn2C2C3CC4CC(C3)CC2C4)nc1` (stereo unspecified) yielded an IC50 in assay [1] of 10.2 µM. In other words, the double-digit micromolar range.
Regarding `Cc1ccccc1-n1cc(-c2ccccn2)nn1`, the IC50 in assay [1] is 9.3 µM; in assay [2], 0.49 µM.
